Measurements: the supplement of paper PMC10307832

Assays:
Test in all cases: relative viability (nuclei count vs DMSO), 5 days (fraction); higher = more cells survive
RU-SKI 43 + Pemetrexed = compound: CC[C@@H](C)CNCC(=O)N1CCC2=C([C@@H]1COC3=CC=CC(=C3)C)C=CS2 [RU-SKI 43] + Nc1nc2[nH]cc(CCc3ccc(C(=O)N[C@@H](CCC(=O)O)C(=O)O)cc3)c2c(=O)[nH]1 [Pemetrexed] (partner 0.2 µM)
Summary of the method: (§1)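 Cells from lung cancer lines were seeded into 1536-well plates and, one day later, dosed by pin tool. Treatments were either a single drug or a fixed dose of an anchor drug with five library-drug doses (not always all listed) in √10 steps. After 5 days, nuclei were stained in a one-step fixation (final 0.05% Triton X-100, 1% formaldehyde, 1 ug/ml Hoechst) and counted on 4× images, and relative viability is the treated-to-vehicle nuclei ratio, as the median of duplicate plates.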

Irinotecan + Bortezomib = compound: CCc1c2c(nc3ccc(OC(=O)N4CCC(N5CCCCC5)CC4)cc13)-c1cc3c(c(=O)n1C2)COC(=O)[C@]3(O)CC [Irinotecan] + CC(C)C[C@H](NC(=O)[C@H](Cc1ccccc1)NC(=O)c1cnccn1)B(O)O [Bortezomib] (partner 0.002 µM)
Summary of the method: as §1

Irinotecan + Luminespib = compound: CCc1c2c(nc3ccc(OC(=O)N4CCC(N5CCCCC5)CC4)cc13)-c1cc3c(c(=O)n1C2)COC(=O)[C@]3(O)CC [Irinotecan] + CCNC(=O)c1noc(-c2cc(C(C)C)c(O)cc2O)c1-c1ccc(CN2CCOCC2)cc1 [Luminespib] (partner 0.01 µM)
Summary of the method: as §1

MK-8033 + Luminespib = compound: Cn1cc(-c2cnc3ccc4ccc(CS(=O)(=O)NCc5ccccn5)cc4c(=O)c3c2)cn1 [MK-8033] + CCNC(=O)c1noc(-c2cc(C(C)C)c(O)cc2O)c1-c1ccc(CN2CCOCC2)cc1 [Luminespib] (partner 0.01 µM)
Summary of the method: as §1

Cell Line | relative viability (RU-SKI 43 + Pemetrexed; first compound 0.1 µM) | relative viability (RU-SKI 43 + Pemetrexed; first compound 0.3162 µM) | relative viability (RU-SKI 43 + Pemetrexed; first compound 1 µM) | relative viability (RU-SKI 43 + Pemetrexed; first compound 3.162 µM) | relative viability (RU-SKI 43 + Pemetrexed; first compound 10 µM) | relative viability (Irinotecan + Bortezomib; first compound 0.6325 µM) | relative viability (Irinotecan + Bortezomib; first compound 2 µM) | relative viability (Irinotecan + Bortezomib; first compound 6.325 µM) | relative viability (Irinotecan + Bortezomib; first compound 20 µM) | relative viability (Irinotecan + Luminespib; first compound 0.6325 µM) | relative viability (Irinotecan + Luminespib; first compound 2 µM) | relative viability (Irinotecan + Luminespib; first compound 6.325 µM) | relative viability (Irinotecan + Luminespib; first compound 20 µM) | relative viability (MK-8033 + Luminespib; first compound 0.02 µM) | relative viability (MK-8033 + Luminespib; first compound 0.06325 µM) | relative viability (MK-8033 + Luminespib; first compound 0.2 µM) | relative viability (MK-8033 + Luminespib; first compound 0.6325 µM) | relative viability (MK-8033 + Luminespib; first compound 2 µM)
PC-3 [JPC-3] | 1.09 | 0.917 | 1.37 | 1.15 | 1.2 | 0.703 | 0.826 | 0.579 | 0.296 | 0.642 | 0.431 | 0.334 | 0.36 | 0.728 | 0.618 | 0.713 | 0.663 | 0.713
PC-14 | 0.132 | 0.13 | 0.133 | 0.151 | 0.13 | 0.831 | 0.802 | 0.178 | 0.158 | 0.11 | 0.326 | 0.321 | 0.252 | 0.125 | 0.128 | 0.131 | 0.174 | 0.224
RERF-LC-KJ | 0.48 | 0.462 | 0.508 | 0.457 | 0.482 | – | 1.16 | 0.563 | 0.468 | 0.692 | 0.567 | 0.461 | 0.224 | 1.14 | 1.14 | 1.25 | 1.24 | 1.06
SK-LU-1 | 0.969 | 1.16 | 1.07 | 1.04 | 0.939 | 0.887 | 0.672 | 0.291 | 0.47 | 0.202 | 0.241 | 0.244 | 0.236 | 0.188 | 0.236 | 0.223 | 0.188 | 0.192
SW 1573 | 0.674 | 0.942 | 0.991 | 0.867 | 0.759 | 0.803 | 0.745 | 0.189 | 0.162 | 0.232 | 0.269 | 0.195 | 0.148 | 0.178 | 0.206 | 0.719 | 0.366 | 0.185
